Values after ≈ are worked out from the molar mass of the structure shown. “Also recorded” adds a separate entry of the source. Like-named read-outs stand apart in the source and are kept apart here.
Columns and labels:
Escherichia coli EC14 = experiment: MIC, standard agar-dilution assay (Table II); format: cell-based; conditions: free base, E. coli EC14
Experimental: (§1) Tables II and III summarize the minimal inhibitory concentrations (MIC) at which 20-deoxo-DMOT and mycaminosyltylactone (as free bases) inhibit certain organisms. The MIC's in Table II were determined by standard agar-dilutionassays. The MIC's in Table III were obtained using a conventional broth-dilution microtiter test.

Escherichia coli N10 = experiment: MIC, standard agar-dilution assay (Table II); format: cell-based; conditions: free base, E. coli N10
Experimental: as §1

Escherichia coli TEM = experiment: MIC, standard agar-dilution assay (Table II); format: cell-based
Experimental: as §1

[1] = tested on: Haemophilus influenzae 76; experiment: MIC, standard agar-dilution assay (Table II); format: cell-based
Experimental: as §1

[2] = tested on: Haemophilus influenzae C.L.; experiment: MIC, standard agar-dilution assay (Table II); format: cell-based
Experimental: as §1

[3] = tested on: Klebsiella pneumoniae KAE; experiment: MIC, standard agar-dilution assay (Table II); format: cell-based; conditions: free base, K. pneumoniae KAE
Experimental: as §1

[4] = tested on: Klebsiella pneumoniae X26; experiment: MIC, standard agar-dilution assay (Table II); format: cell-based
Experimental: as §1

Shigella sonnei N9 = experiment: MIC, standard agar-dilution assay (Table II); format: cell-based; conditions: free base
Experimental: as §1

[5] = tested on: Staphylococcus aureus NRRL B313; experiment: MIC, standard agar-dilution assay (Table II); format: cell-based
Experimental: as §1

[6] = tested on: Staphylococcus aureus S13E; experiment: MIC, standard agar-dilution assay (Table II); format: cell-based
Experimental: as §1

[7] = tested on: Staphylococcus aureus V41; experiment: MIC, standard agar-dilution assay (Table II); format: cell-based; conditions: free base, S. aureus V41
Experimental: as §1

[8] = tested on: Staphylococcus aureus X400; experiment: MIC, standard agar-dilution assay (Table II); format: cell-based
Experimental: as §1

[9] = tested on: Staphylococcus epidermidis EPI1; experiment: MIC, standard agar-dilution assay (Table II); format: cell-based; conditions: free base, S. epidermidis EPI1
Experimental: as §1

[10] = tested on: Staphylococcus epidermidis EPI2; experiment: MIC, standard agar-dilution assay (Table II); format: cell-based; conditions: free base, S. epidermidis EPI2
Experimental: as §1

[11] = tested on: Streptococcus faecium ATCC 9790; experiment: MIC, standard agar-dilution assay (Table II); format: cell-based; conditions: Enterococcus faecium, ATCC9790
Experimental: as §1

[12] = tested on: Streptococcus pneumoniae Park 1; experiment: MIC, standard agar-dilution assay (Table II); format: cell-based; conditions: PARK1, free base, S. pneumoniae Park 1
Experimental: as §1

[13] = tested on: Streptococcus pyogenes C203; experiment: MIC, standard agar-dilution assay (Table II); format: cell-based
Experimental: as §1

[14] = tested on: Streptococcus sp. group D 9960; experiment: MIC, standard agar-dilution assay (Table II); format: cell-based
Experimental: as §1

Mycoplasma gallisepticum = experiment: MIC, conventional broth-dilution microtiter test (Table III); format: cell-based; conditions: Mycoplasmoides gallisepticum, free base, M. gallisepticum
Experimental: as §1

Mycoplasma hyorhinis = experiment: as above; format: cell-based; conditions: free base, M. hyorhinis
Experimental: as §1

Mycoplasma synoviae = experiment: as above; format: cell-based; conditions: Mycoplasmopsis synoviae, free base, M. synoviae
Experimental: as §1

[15] = tested on: Pasteurella hemolytica 22C; experiment: as above; format: cell-based; conditions: free base, P. hemolytica 22C
Experimental: as §1

[16] = tested on: Pasteurella multocida 17E; experiment: as above; format: cell-based; conditions: free base, P. multocida 17E, bovine isolate
Experimental: as §1

[17] = tested on: Pasteurella multocida 60A; experiment: as above; format: cell-based; conditions: free base, P. multocida 60A, avian isolate
Experimental: as §1

[18] = tested on: pathogenic bacteria, especially gram-positive bacteria and Mycoplasma species; experiment: Inhibition of growth of pathogenic bacteria (in words); format: cell-based
Experimental: as §1

Solubility = format: physicochemical; conditions: free base

| Compound | MIC (Escherichia coli EC14) [µg/mL] | MIC (Escherichia coli N10) [µg/mL] | MIC (Escherichia coli TEM) [µg/mL] | MIC [3] [µg/mL] | MIC (Shigella sonnei N9) [µg/mL] | MIC [6] [µg/mL] | MIC [7] [µg/mL] | MIC [9] [µg/mL] | MIC [10] [µg/mL] | MIC [12] [µg/mL] | MIC (Mycoplasma gallisepticum) [µg/mL] | MIC (Mycoplasma hyorhinis) [µg/mL] | MIC (Mycoplasma synoviae) [µg/mL] | MIC [15] [µg/mL] | MIC [16] [µg/mL] | MIC [17] [µg/mL] | antibacterial activity (in words) [18] | also measured |
| --- | --- | --- | --- | --- | --- | --- | --- | --- | --- | --- | --- | --- | --- | --- | --- | --- | --- | --- |
| CCC1CC(C)C(=O)/C=C/C(C)=C/C(C)C(CC)OC(=O)CC(O)C(C)C1OC1OC(C)C(O)C(N(C)C)C1O (stereo not shown) [Mycaminosyltylactone, 5-O-mycaminosyltylactone] | > 128 | > 128 | > 128 | > 128 | > 128 | 8 (≈ 14.1 µM) | 16 (≈ 28.2 µM) | 8 (≈ 14.1 µM) | 16 (≈ 28.2 µM) | 4 (≈ 7.05 µM) | 1.56 (≈ 2.75 µM) | 50 (≈ 88.1 µM) | 12.5 (≈ 22 µM) | 25 (≈ 44 µM) | 12.5 (≈ 22 µM) | 12.5 (≈ 22 µM) | inhibit the growth of pathogenic bacteria, especially gram-positive bacteria and Mycoplasma species | MIC ([1]; free base, agar-dilution, H. influenzae 76, read-out: MIC): 16 µg/mL (≈ 28.2 µM); MIC ([2]; free base, agar-dilution, H. influenzae C.L., read-out: MIC): 16 µg/mL (≈ 28.2 µM); MIC ([4]; free base, agar-dilution, K. pneumoniae X26, read-out: MIC): 8 µg/mL (≈ 14.1 µM); MIC ([5]; NRRLB313, free base, agar-dilution, S. aureus NRRL B313, read-out: MIC): 16 µg/mL (≈ 28.2 µM); MIC ([8]; free base, agar-dilution, S. aureus X400, read-out: MIC): 32 µg/mL (≈ 56.4 µM); MIC ([11]; free base, agar-dilution, S. faecium ATCC 9790, read-out: MIC): 32 µg/mL (≈ 56.4 µM); MIC ([13]; free base, agar-dilution, S. pyogenes C203, read-out: MIC): 32 µg/mL (≈ 56.4 µM); MIC ([14]; free base, agar-dilution, Streptococcus sp. group D 9960, read-out: MIC): 32 µg/mL (≈ 56.4 µM) |
| CCC1CC(C)C(=O)/C=C/C(C)=C/C(C)C(CC)OC(=O)CC(O)C(C)C1OC1OC(C)C(OC2CC(C)(O)C(O)C(C)O2)C(N(C)C)C1O (stereo not shown) [20-Deoxo-DMOT, 20-dihydro-20-deoxy-23-de(mycinosyloxy)tylosin] | > 128 | > 128 | > 128 | > 128 | > 128 | 64 (≈ 89.9 µM) | 64 (≈ 89.9 µM) | 64 (≈ 89.9 µM) | 64 (≈ 89.9 µM) | 64 (≈ 89.9 µM) | > 50 | 50 (≈ 70.2 µM) | 50 (≈ 70.2 µM) | > 50 | > 50 | > 50 | some antibacterial activity; also recorded: inhibit the growth of pathogenic bacteria, especially gram-positive bacteria and Mycoplasma species | MIC [1]; 76: > 128 µg/mL; MIC [2]: > 128 µg/mL; MIC ([4]; X26): > 128 µg/mL; MIC ([5]; NRRLB313): 128 µg/mL (≈ 180 µM); MIC ([8]; X400): 128 µg/mL (≈ 180 µM); MIC [11]: > 128 µg/mL; MIC ([13]; C203): 128 µg/mL (≈ 180 µM); MIC ([14]; Streptococcus): > 128 µg/mL; solubility in water (Solubility): slightly soluble in water; solubility in polar organic solvents (Solubility; acetone, methanol, ethanol, chloroform, dimethylformamide and dimethyl sulfoxide): soluble in most polar organic solvents such as acetone, methanol, ethanol, chloroform, dimethylformamide and dimethyl sulfoxide |

From patent publication US4528369A, “20-Dihydro-20-deoxy-23-de(mycinosyloxy)tylosin” (Eli Lilly and Company, priority 1983, dated 1985)
